Measurements published in patent US20240293323A1, “PHARMACEUTICAL COMPOSITIONS OF AN EPIDERMAL GROWTH FACTOR RECEPTOR INHIBITOR” (Blueprint Mdeicines Coroporation, priority 2021, published 2024).

Assay: Aqueous solubility
Assay type: physicochemical

- aqueous solubility: low aqueous solubility
SMILES: CO[C@@H]1CCN(c2nccc(Nc3cc4c(C(C)C)ccc(N5C[C@H](CS(C)(=O)=O)[C@H]5C)c4cn3)n2)C[C@@H]1F [Compound (I), N-(2-((3S,4R)-3-fluoro-4-methoxypiperidin-1-yl)pyrimidin-4-yl)-5-isopropyl-8-((2R,3S)-2-methyl-3-((methylsulfonyl)methyl)azetidin-1-yl)isoquinolin-3-amine]
